Assay results from patent US20140350119A1, “OPHTHALMIC COMPOSITION COMPRISING GERANYLGERANYLACETONE” (ROHTO PHARMACEUTICAL CO., LTD., priority 2012, published 2014).

Legend:
[1] = system: rat models with glaucoma induced by NMDA; assay: Protective effect for retinal ganglion cells against nerve damage by NMDA (thickness of inner plexiform layer); type: in vivo, Sprague-Dawley (SD) rats
From the text: In recent years the glutamate analogue NMDA (N-methyl-D-aspartate) has been widely reported to be one of causative agents of neurodegenerative diseases including Alzheimer's disease. In the ophthalmic field, NMDA is considered to be involved in optic nerve damage in glaucoma (Brain Research Bulletin, 81 (2010) 349-358). Accordingly, in this experiment rat models with glaucoma induced by NMDA were used to evaluate the neuroprotective effect of GGA.
To Sprague-Dawley (SD) rats, the all-trans form, the 5Z-mono-cis form and teprenone were separately pre-administered by oral administration (Test Example 1), intravitreal administration (Test Example 2) or ocular instillation administration (Test Example 3) and 5 μL of NMDA was administered into the vitreous body to induce nerve damage. For Test Example 2, a marketed therapeutic eye drop for glaucoma, AIPHAGAN (trade name), was intravitreally administered as a positive control once a day for five days. For each of Test Examples, a base not containing GGA or AIPHAGAN was administered as a control in the same manner as described above.
The dosage and regimen of Test Examples 1 to 3 are shown in Table 1 and the constitution of the base used in each tests are shown in Table 2.
Three days after administration of NMDA, the eyeballs were harvested, fixed with half Karnovsky's fixative for 24 hours, embedded in paraffin, thin sectioned and stained with hematoxylin-eosin (HE) to prepare histopathological sections. The histological sections were observed under an optical microscope and the thickness (μm) of the inner plexiform layer (IPL) of the retina was measured. From the thickness of the inner plexiform layer (IPL) of the retina, the neuroprotective effects of the test preparations were evaluated.

[2] = system: rat-derived retinal ganglion cells (RGC); assay: Neurite outgrowth inducing effect in culture system of rat-derived retinal ganglion cells; type: cell-based, Wistar rats; conditions: all-trans form content 3 μM; 48 hours; FIG. 2, FIG. 3; n=4
From the text: The progress of visual impairment in glaucoma is associated with retinal ganglion cell (RGC) death due to blood flow failure occurring near the optic nerve (Folia Pharmacol. Jpn. 128, 255-258 (2006)). Accordingly, a culture system of rat-derived retinal neurons (Current protocols in Neuroscience 3.22.1-3.22.10, October 2010), which is widely used as one of study tools for optic nerve diseases such as a glaucoma, was used to examine the neurite outgrowth inducing effect of GGA.
Four-day-old Wistar rats (Japan SLC, Inc.) were euthanized by cervical dislocation and the eyeballs were harvested. The harvested eyeballs were immersed in 70% ethanol for 10 seconds and transferred to a Hanks' balanced salt solution containing 100 U/mL penicillin and 100 μg/mL streptomycin. Under a stereoscopic microscope, the corneas, irises, crystalline lenses, and vitreous bodies were removed using scissors for surgery and forceps, and the retinal tissue was harvested. The harvested retinal tissue was transferred to a centrifugation tube containing 5 mL of a basal medium for neuronal cells (Neurobasal, Invitrogen) containing 100 U/mL penicillin, 100 μg/mL streptomycin, a neural cell culture supplement (B27™-Supplement, Invitrogen), 1 μM L-cysteine (Kyowa Hakko Bio) and 15 U/mL papain (Sigma Aldrich) and incubated at 37° C. for 30 minutes. […]

CC(=O)CC/C=C(\C)CC/C=C(\C)CC/C=C(\C)CCC=C(C)C [all-trans form, (5E,9E,13E)-6,10,14,18-tetramethyl-5,9,13,17-nonadecatetrae n-2-one]
Neuroprotective effect against nerve damage by NMDA compared with the base (IPL thickness) ([1]; Test Example 1: oral, 800 mg/kg, 2 days, once per day, NMDA 4 mM, FIG. 6): significant neuroprotective effects | Neuroprotective effect against nerve damage by NMDA compared with the base (IPL thickness) ([1]; Test Example 2: intravitreal, 0.05% w/v, 5 days, once per day, NMDA 40 mM, FIG. 7): significant neuroprotective effects | Neuroprotective effect compared with AIPHAGAN Ophthalmic Solution 0.1% ([1]; Test Example 2: intravitreal, 0.05% w/v, 5 days, NMDA 40 mM, FIG. 7): significantly superior neuroprotective effect | Neuroprotective effect against nerve damage by NMDA compared with the base (IPL thickness) ([1]; Test Example 3: ocular instillation, 1% w/v, 5 days, 5 times per day, NMDA 4 mM, FIG. 9): significant neuroprotective effect | Neurite inducing effect (mean length of neurites of RGC) compared with GGA 6:4 and base [2]: significant neurite inducing effect
